This is an account of results in ChEMBL document CHEMBL1201862, “PubChem BioAssay data set” (2004).

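In this assay, cells in 96-well plates receive the compound at five concentrations for 48 hours. Endpoints are linearly interpolated between the surrounding concentrations. GI50 marks 50% less growth.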 The source made the active and inactive calls. No stated cut-off is given here; in the data, active = GI50 up to about 1.1 µM and inactive = higher.

Holding throughout (experiment): DTP human tumour cell line panel, 48 h
Experiment [1] concerns LXFL 529.
Experiment [2] deals with DMS-114.
Experiment [3] concerns M19-MEL.
In experiment [4] the test system is HOP-18.
The test system of experiment [5] is DMS-273.
For experiment [6], the system named is SNB-78.
Experiment [7] deals with XF498.
Experiment [8] concerns RXF 631.
Experiment [9] relates to DLD-1.

By GI50 is commonly meant the concentration at which growth is held to half of that of the control. For `Cn1c(N)c(-c2c3ccccc3nc3ccccc23)c(=O)n(C)c1=O`, the GI50 in [1], in experiment [2], in [3] and in experiment [4] was > 100 µM (inactive) throughout.

Turning to `CC(C)(C)OC(=O)N1N=NC2C1C1CC(OCc3ccccc3)(OCc3ccccc3)C2O1` (stereo not drawn), the GI50 in [5] is 52.2 µM (inactive); in [1], 16.4 µM (inactive); in [6], 43.7 µM (inactive); in [7] it was 15.9 µM (inactive); in experiment [2] it was 17.7 µM (inactive); in experiment [3], 37.5 µM (inactive). The GI50 in experiment [8] is > 100 µM (inactive); in [4], 35.9 µM (inactive); in [9], 26.1 µM (inactive).

For `CCOC(=O)C(=O)Nc1nc2c(OCC)cccc2s1`, the GI50 in experiment [5], in experiment [1], in [6], in experiment [2], in [3] and in [8] was > 100 µM (inactive) each time. Besides, the GI50 in [4] and in experiment [9] was > 100 µM (inactive) throughout.

Take `O=C(Nc1cccc(NC(=O)c2cc(=O)c3ccccc3o2)n1)c1cc(=O)c2ccccc2o1`: the GI50 in [5] is 9.64 µM (inactive); in experiment [1], 7.69 µM (inactive); in experiment [6], > 100 µM (inactive); in experiment [2], 19.2 µM (inactive); in experiment [3], > 100 µM (inactive); in experiment [8], 51.5 µM (inactive). The GI50 in experiment [9] was 75.9 µM (inactive).

With `N#CC(/C(=N/NC(=O)C(=O)NN)C(=O)Nc1nc([N+](=O)[O-])cs1)c1ccc(Cl)cc1` (stereo not drawn), the GI50 in experiment [1], in experiment [6], in experiment [7], in experiment [2], in experiment [3] and in [9] was > 100 µM (inactive) throughout.

Turning to `Oc1ccc(O)c(-n2cccn2)c1`, the GI50 was 75.5 µM (inactive) in experiment [5]; 20.9 µM (inactive) in [1]; 58.5 µM (inactive) in [6]; > 100 µM (inactive) in experiment [7]; 29.6 µM (inactive) in [2]; 30 µM (inactive) in experiment [3]. Also, the GI50 is 50 µM (inactive) in experiment [8] and 63 µM (inactive) in experiment [9].

`O=C(CCc1nnc2s/c(=C\c3ccc([N+](=O)[O-])cc3)c(=O)n12)Nc1ccc(Cl)c(Cl)c1`: the GI50 in [5] was 24.5 µM (inactive); in experiment [1], 13.4 µM (inactive); in [6], 25.4 µM (inactive); in experiment [7], 27.6 µM (inactive); in [2], 17.3 µM (inactive); in [3], 31.6 µM (inactive). Also, the GI50 in experiment [8] was 49.9 µM (inactive); in experiment [9], 19.3 µM (inactive).

Regarding `COc1ccc(CNc2nc3ccccc3nc2-c2cccs2)cc1OC`, the GI50 in [5] was 50.5 µM (inactive); in [1] it was 15.7 µM (inactive); in experiment [6], 82.8 µM (inactive); in experiment [7] it was 16 µM (inactive); in [3], 33.1 µM (inactive); in experiment [8], 29.7 µM (inactive). In addition, the GI50 in experiment [4] was > 100 µM (inactive).

`O=C(O)c1cc(-c2ccccc2O)nc2ccccc12`: the GI50 in [1] is > 100 µM (inactive); in experiment [6], > 100 µM (inactive); in experiment [7], > 100 µM (inactive); in experiment [2] it was > 100 µM (inactive); in experiment [3] it was > 100 µM (inactive); in experiment [4], 26.2 µM (inactive). In addition, the GI50 in [9] is > 100 µM (inactive).

Consider `CC1=C2CCCC2=C/C(=N/Nc2ccc([N+](=O)[O-])cc2[N+](=O)[O-])CC1`, for which the GI50 in [5], in experiment [1], in [6], in [7], in [2] and in experiment [3] was > 100 µM (inactive) throughout. For the same molecule, the GI50 in experiment [4] and in experiment [9] was > 100 µM (inactive) throughout.

Consider `N#C/C1=C(\N)CCSSSC1`, for which the GI50 in [5] is 33.3 µM (inactive); in experiment [1], 33.1 µM (inactive); in experiment [6], 21.7 µM (inactive); in [7], 51.6 µM (inactive); in [2] it was 32.7 µM (inactive); in [3] it was 32.1 µM (inactive). Besides, the GI50 was 41.1 µM (inactive) in experiment [8] and 31.7 µM (inactive) in [9].

With `CCC1=C(CC2NCCc3ccccc32)CC2c3cc(OC)c(OC)cc3CCN2C1` (stereo not drawn), the GI50 in experiment [5] was 0.618 µM (active); in [1], 0.995 µM (active); in experiment [6], 1.44 µM (inactive); in [7], 0.8 µM (active); in experiment [3], 0.627 µM (active); in experiment [8], 1.45 µM (inactive). In addition, the GI50 in [9] is 2.49 µM (inactive).

Take `CCOC(=O)CC1NC(=O)CS1` (stereo not drawn): the GI50 was 37.7 µM (inactive) in experiment [5]; > 100 µM (inactive) in experiment [1]; > 100 µM (inactive) in experiment [6]; 25.1 µM (inactive) in experiment [2]; > 100 µM (inactive) in experiment [3]; > 100 µM (inactive) in experiment [8]. Moreover, the GI50 in [4] was > 100 µM (inactive); in experiment [9], 42.5 µM (inactive).

In the case of `C#CCN(C)C(=O)N(CC#C)N=O`, the GI50 in experiment [5], in [1], in experiment [6], in [2], in [3] and in [8] was > 100 µM (inactive) throughout. Also, the GI50 in experiment [4] and in experiment [9] was > 100 µM (inactive) throughout.

Take `CCc1cc(Cc2cc(CC)c(NC(=O)C3=CC(=O)CC(c4ccc(OC)cc4)O3)c(CC)c2Cl)c(Cl)c(CC)c1NC(=O)C1=CC(=O)CC(c2ccc(OC)cc2)O1` (stereo not drawn): the GI50 in experiment [5] was 21.7 µM (inactive); in experiment [1], 18 µM (inactive); in experiment [6], 28.2 µM (inactive); in [2], 17.7 µM (inactive); in experiment [3], 17.3 µM (inactive); in [8], 89.7 µM (inactive). In addition, the GI50 in experiment [4] was 22.1 µM (inactive); in [9] it was 18.4 µM (inactive).

Regarding `O=C(c1ccccc1)C(c1ccccc1)C1(O)C(=O)Nc2ccccc21` (stereo not drawn), the GI50 in experiment [5], in [1], in experiment [6], in experiment [7], in experiment [2] and in [3] was > 100 µM (inactive) throughout. The GI50 in [8] and in experiment [9] was > 100 µM (inactive) in each case.

With `Cc1nnc2n1N=C(c1ccc(-c3ccc([N+](=O)[O-])cc3)o1)CS2`, the GI50 in [5], in experiment [1], in experiment [6], in [3] and in experiment [9] was > 100 µM (inactive) in each case.

Turning to `NC(=O)c1cccc(C2OC(COP(=O)(O)O)C(O)C2O)c1` (stereo not drawn), the GI50 in [5] is 48 µM (inactive); in experiment [1] it was > 50 µM (inactive); in experiment [6] it was 43.7 µM (inactive); in [7], 14.7 µM (inactive); in experiment [3], > 50 µM (inactive); in experiment [9] it was 36.6 µM (inactive).

With `CC(=O)O[C@H]1CCN2C(=O)C=CC(OCc3ccccc3)C12` (stereo partly drawn), the GI50 in experiment [5], in experiment [1], in experiment [6], in experiment [7], in experiment [2] and in [3] was > 100 µM (inactive) in each case. In addition, the GI50 in [4] and in experiment [9] was > 100 µM (inactive) each time.

For `CCCCCCCCCCCCCCCC(=O)OCC1OC(n2ccc(N)nc2=O)C(O)C1O` (stereo not drawn), the GI50 in experiment [5] is 2.04 µM (inactive); in experiment [1], > 100 µM (inactive); in experiment [6] it was > 100 µM (inactive); in experiment [7], > 100 µM (inactive); in experiment [3] it was 2.26 µM (inactive); in [4], 6.31 µM (inactive).

In the case of `O=c1c2ccccc2n2nnc3ccc(NCCNCCO)c1c32`, the GI50 in experiment [5] is 2.62 µM (inactive); in experiment [1], 2.42 µM (inactive); in [6], 7.71 µM (inactive); in [7], 5.7 µM (inactive); in experiment [2] it was 3.2 µM (inactive); in experiment [3] it was 2.26 µM (inactive). In addition, the GI50 is 1.85 µM (inactive) in experiment [8], 0.183 µM (active) in experiment [4] and 2.19 µM (inactive) in [9].
